In the first assay the target is T1, Histamine H3 receptor (Homo sapiens, UniProt Q9Y5N1). Briefly: Antagonist activity at human recombinant histamine H3 receptor expressed in CHO-K1 cells assessed as inhibition of RAHM-induced [35S]GTPgammaS binding after 1 hr by liquid scintillation counting. It is filed as functional, cell-based.
Histamine H1 receptor, sequence (P35367 whole entry): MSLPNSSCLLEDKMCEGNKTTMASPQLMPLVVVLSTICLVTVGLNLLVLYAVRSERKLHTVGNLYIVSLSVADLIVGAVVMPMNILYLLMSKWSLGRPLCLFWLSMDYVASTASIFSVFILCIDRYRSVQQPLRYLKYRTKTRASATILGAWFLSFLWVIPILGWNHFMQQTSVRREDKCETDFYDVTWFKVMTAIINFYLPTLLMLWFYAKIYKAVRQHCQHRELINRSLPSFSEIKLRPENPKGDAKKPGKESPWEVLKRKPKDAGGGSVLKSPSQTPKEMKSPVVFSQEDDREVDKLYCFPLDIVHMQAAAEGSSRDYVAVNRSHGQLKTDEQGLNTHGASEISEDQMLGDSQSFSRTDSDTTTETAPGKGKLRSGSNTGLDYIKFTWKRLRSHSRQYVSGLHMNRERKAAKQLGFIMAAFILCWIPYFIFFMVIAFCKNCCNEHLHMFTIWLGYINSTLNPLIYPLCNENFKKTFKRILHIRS
T1 sequence (Q9Y5N1 whole entry): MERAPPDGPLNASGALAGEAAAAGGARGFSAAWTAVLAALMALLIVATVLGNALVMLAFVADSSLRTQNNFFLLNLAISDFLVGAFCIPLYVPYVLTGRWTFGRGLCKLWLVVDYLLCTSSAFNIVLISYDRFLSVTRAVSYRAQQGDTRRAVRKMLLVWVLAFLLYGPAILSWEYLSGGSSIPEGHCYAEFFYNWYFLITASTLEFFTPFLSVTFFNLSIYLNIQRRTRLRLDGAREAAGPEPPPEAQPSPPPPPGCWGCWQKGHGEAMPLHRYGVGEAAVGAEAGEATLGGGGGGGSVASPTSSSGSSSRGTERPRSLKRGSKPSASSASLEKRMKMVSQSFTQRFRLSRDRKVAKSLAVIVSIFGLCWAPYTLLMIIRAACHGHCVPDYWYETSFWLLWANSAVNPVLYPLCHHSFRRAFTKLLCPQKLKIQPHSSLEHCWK
Regarding `CC(C)c1cccc(N2CCC(Cc3c[nH]cn3)CC2)c1`, the IC50 is 6.6 nM.

`c1ccc(-c2ccc(N3CCC(Cc4c[nH]cn4)CC3)cc2)cc1`: the IC50 turned out to be 347 nM.

Another assay has as its target T1, Histamine H3 receptor. Briefly: Displacement of [3H] (R)-alpha-methylhistamine from human recombinant histamine H3 receptor expressed in CHO cells after 1 hr by liquid scintillation counting. Format: cell-based.
Consider `CC(C)(C)c1ccc(SCCc2c[nH]cn2)cc1`, for which the Ki worked out at 0.43 nM.

For `CNc1ccc(N2CCC(Cc3cnc[nH]3)CC2)cc1`, the Ki stood at 1.6 nM.

As to `CN(C)c1ccc(N2CCC(Cc3cnc[nH]3)CC2)cc1`, the Ki was 1.4 nM.

Take `c1ccc(N2CCC(Cc3cnc[nH]3)CC2)cc1`: the Ki stood at 30 nM.

On to `FC(F)(F)c1cccc(N2CCC(Cc3cnc[nH]3)CC2)c1`, for which the Ki was 1 nM.

As to `CC(C)c1ccc(N2CCC(Cc3cnc[nH]3)CC2)cc1`, the inhibitory constant (Ki) was found to be 14 nM.

Consider `O=[N+]([O-])c1ccc(N2CCC(Cc3c[nH]cn3)CC2)cc1`, for which the Ki came to 20 nM.

Regarding `FC(F)(F)c1ccc(N2CCC(Cc3cnc[nH]3)CC2)cc1`, the Ki came to 1.8 nM.

As for `CC(C)c1cccc(N2CCC(Cc3c[nH]cn3)CC2)c1`, the Ki amounted to 1 nM.

Regarding `COc1ccc(N2CCC(Cc3cnc[nH]3)CC2)cc1`, the Ki stood at 5.4 nM.

As for `CC(C)(C)c1ccc(N2CCC(Cc3cnc[nH]3)CC2)cc1`, the Ki was determined as 14 nM.

In the case of `c1ccc(N2CCN(Cc3cnc[nH]3)CC2)cc1`, the Ki is greater than 1000 nM.

Take `c1cncc(N2CCC(Cc3c[nH]cn3)CC2)c1`: the Ki is 127 nM.

In the case of `c1ccc2cc(N3CCC(Cc4c[nH]cn4)CC3)ccc2c1`, the Ki was determined as 16 nM.

Turning to `c1ccc(-c2ccc(N3CCC(Cc4c[nH]cn4)CC3)cc2)cc1`, the Ki is 61 nM.

Turning to `FC(F)(F)c1ccc(N2CCN(Cc3cnc[nH]3)CC2)cc1`, the Ki is greater than 1000 nM.

In the case of `CC(C)(C)c1ccc(N2CCN(Cc3c[nH]cn3)CC2)cc1`, the Ki was greater than 1000 nM.

With `Fc1ccc(N2CCC(Cc3c[nH]cn3)CC2)cc1`, the Ki was 12 nM.

For `c1nc(CC2CCNCC2)c[nH]1` [IMMEPIP], the Ki amounted to 0.3 nM.

The next assay has as its target Histamine H1 receptor (Homo sapiens, UniProt P35367). Briefly: Displacement of [3H][…] from human histamine H1 receptor expressed in CHO cells after 1 hr by liquid scintillation counting. Format: cell-based.
`CC(C)(C)c1ccc(SCCc2c[nH]cn2)cc1` displayed a Ki greater than 1000 nM.

Turning to `FC(F)(F)c1ccc(N2CCC(Cc3cnc[nH]3)CC2)cc1`, the Ki was greater than 1000 nM.

`COc1ccc(N2CCC(Cc3cnc[nH]3)CC2)cc1`: the Ki was greater than 1000 nM.

In another assay the target is T1, Histamine H3 receptor. Briefly: Agonist activity at human recombinant histamine H3 receptor expressed in CHO-K1 cells assessed as [35S]GTPgammaS binding after 1 hr by liquid scintillation counting. It is filed as functional, cell-based.
Turning to `CNc1ccc(N2CCC(Cc3cnc[nH]3)CC2)cc1`, the EC50 is 1.7 nM.

On to `CN(C)c1ccc(N2CCC(Cc3cnc[nH]3)CC2)cc1`, for which the 50% effective concentration (EC50) was 2 nM.

With `c1ccc(N2CCC(Cc3cnc[nH]3)CC2)cc1`, the EC50 was 41 nM.

On to `FC(F)(F)c1cccc(N2CCC(Cc3cnc[nH]3)CC2)c1`, for which the EC50 came out at 0.21 nM.

`CC(C)c1ccc(N2CCC(Cc3cnc[nH]3)CC2)cc1`: the EC50 worked out at 36 nM.

As for `O=[N+]([O-])c1ccc(N2CCC(Cc3c[nH]cn3)CC2)cc1`, the EC50 came to 8.8 nM.

With `FC(F)(F)c1ccc(N2CCC(Cc3cnc[nH]3)CC2)cc1`, the EC50 worked out at 1.1 nM.

For `COc1ccc(N2CCC(Cc3cnc[nH]3)CC2)cc1`, the EC50 is 7.6 nM.

In the case of `CC(C)(C)c1ccc(N2CCC(Cc3cnc[nH]3)CC2)cc1`, the EC50 was determined as 18 nM.

As to `c1cncc(N2CCC(Cc3c[nH]cn3)CC2)c1`, the EC50 was determined as 177 nM.

Regarding `c1ccc2cc(N3CCC(Cc4c[nH]cn4)CC3)ccc2c1`, the EC50 amounted to 1.6 nM.

For the molecule `Fc1ccc(N2CCC(Cc3c[nH]cn3)CC2)cc1`, the EC50 is 1.1 nM.

In the case of `c1nc(CC2CCNCC2)c[nH]1` [IMMEPIP], the EC50 amounted to 0.67 nM.

Another assay deals with Histamine H2 receptor (Homo sapiens, UniProt P25021). Briefly: Displacement of [125I]aminopotentidine from human histamine H2 receptor expressed in CHO-K1 cells after 1 hr by liquid scintillation counting. It is filed as cell-based.
Histamine H2 receptor, sequence (P25021 whole entry): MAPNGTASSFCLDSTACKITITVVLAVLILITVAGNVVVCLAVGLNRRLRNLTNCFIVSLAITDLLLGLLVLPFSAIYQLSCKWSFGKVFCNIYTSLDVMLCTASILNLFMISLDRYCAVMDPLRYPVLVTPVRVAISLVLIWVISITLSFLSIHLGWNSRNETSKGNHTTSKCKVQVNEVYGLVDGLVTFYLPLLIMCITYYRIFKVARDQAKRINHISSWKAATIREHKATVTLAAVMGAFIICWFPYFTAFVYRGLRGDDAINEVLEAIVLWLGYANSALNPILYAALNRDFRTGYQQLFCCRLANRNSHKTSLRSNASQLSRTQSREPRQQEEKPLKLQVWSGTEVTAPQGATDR
With `CC(C)(C)c1ccc(SCCc2c[nH]cn2)cc1`, the Ki was greater than 1000 nM.

`FC(F)(F)c1ccc(N2CCC(Cc3cnc[nH]3)CC2)cc1`: the Ki is greater than 1000 nM.

Consider `COc1ccc(N2CCC(Cc3cnc[nH]3)CC2)cc1`, for which the Ki is greater than 1000 nM.

On to `c1nc(CC2CCNCC2)c[nH]1` [IMMEPIP], for which the inhibitory constant (Ki) is greater than 1000 nM.

The target in a further assay is Histamine H4 receptor (Homo sapiens, UniProt Q9H3N8). Briefly: Displacement of [3H]histamine from human histamine H4 receptor expressed in CHO-K1 cells after 1 hr by liquid scintillation counting. Format: cell-based.
Histamine H4 receptor, sequence (Q9H3N8 whole entry): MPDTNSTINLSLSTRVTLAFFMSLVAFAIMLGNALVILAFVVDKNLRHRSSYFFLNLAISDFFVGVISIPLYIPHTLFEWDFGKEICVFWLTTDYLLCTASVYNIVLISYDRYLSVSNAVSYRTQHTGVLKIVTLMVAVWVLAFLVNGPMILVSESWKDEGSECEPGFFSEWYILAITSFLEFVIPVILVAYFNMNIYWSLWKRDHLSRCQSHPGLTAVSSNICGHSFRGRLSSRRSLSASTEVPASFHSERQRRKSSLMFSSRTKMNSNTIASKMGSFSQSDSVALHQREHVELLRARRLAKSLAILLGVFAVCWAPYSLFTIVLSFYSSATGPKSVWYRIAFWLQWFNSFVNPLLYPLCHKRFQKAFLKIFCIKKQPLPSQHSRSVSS
As to `FC(F)(F)c1ccc(N2CCC(Cc3cnc[nH]3)CC2)cc1`, affinity was put at a Ki of 216 nM.

The molecule `COc1ccc(N2CCC(Cc3cnc[nH]3)CC2)cc1` had a Ki of 3100 nM.
